Experimental data as given in patent publication US8110217B2, “Sphingomyelin liposomes for the treatment of hyperactive bladder disorders” (priority 2001, dated 2012).

System: chemically induced bladder hyperactivity
Test: Cystometrogram (CMG): liposomes of various lipids infused in the presence of KCl after protamine sulfate (Examples 1-4)
Type: in vivo, female Sprague-Dawley rats
Text: Bladder reflex activity in thirty-four (34) female Sprague-Dawley rats (200-250 g) was studied by cystometry performed under anesthesia with urethane (1.2 g/kg) administered by subcutaneous injection. Body temperature was maintained in the physiologic range using a heating lamp. A transurethral bladder catheter (PE-50) connected by a three-way stopcock to a pressure transducer and to a syringe pump was used to record intravesical pressure and to infuse solutions into the bladder. A control cystometrogram (CMG) was performed by slowly filling the bladder with saline at a rate of 0.04 ml/min to elicit repetitive voiding. The bladder contraction frequency of the reflex bladder contractions were recorded. After performing control CMGs with saline infusion for 3 hours, protamine sulfate (PS) (Sigma Chemical; 10 mg/ml) was infused at a rate of 0.04 ml/min for 1 hour to increase epithelial permeability followed by infusion of the irritant KCl (500 mM) for 1 hour. Subsequently, liposomes made from lipids of various compositions then were infused in the presence of a high concentration of KCl for 2 hours.
The effect of charge on the lipid headgroup in reducing bladder activity in three animal groups (n=5) was determined. Neutrally charged liposomes prepared with L-α-PC (a zwitterionic lipid egg PC) were compared against liposomes having either a positively or negatively charged polar headgroup, namely, 1,2-dioleoyl-3-trimethylammonium-propane (DOTAP) and 1-α-phosphatidylserine (POPS), respectively.
Liposomes were prepared as described by Kirby and Gregoriadis (Kirby, C. J. and Gregoriadia, G., “A simple procedure for preparing liposomes capable of high encapsulation efficiency under mild conditions,” Liposome Technology, G. Gregnoriadis, Ed., C.R.C. Press, Inc., Boca Raton, Fla., 1984, Vol. 1, p. 20, 1984). Briefly, liposomes were constructed as a 2:1 molar ratio of L-α-phosphatidylcholine and cholesterol (Sigma Chemical Co., St. Louis, Mo.) to a final lipid concentration of 1-2 mg/ml in saline. Lipids in chloroform were dried down together in the proper ratio under nitrogen. The residues were reconstituted as liposomes in saline or 500 mM KCl by intense sonication. This lipid composition produced liposomes with no net charge.
Statistical analyses were performed using Student's t test for paired or unpaired data, where applicable. A P-value less than 0.05 was considered significant. All data were expressed as means±S.E. (standard error).
Neutrally charged liposomes prepared with sphingomyelin were compared against liposomes prepared from dihydrosphingomyelin and two pure synthetic lipids: 1,2-distearoyl-sn-glycero-3-phosphocholine (DSPC) and 1,-oleoyl-2-stearoyl-sn-glycero-3-phosphocholine (OSPC).
The methodology of this investigation is the same as described above in Example 1 with the exception that the preparation of liposomes was modified from Example 1. Briefly, liposomes were constructed as a 2:1 molar ratio of sphingomyelin and cholesterol (Sigma Chemical Co., St. Louis, Mo.) to a final lipid concentration of 1-2 mg/ml in saline. Lipids in chloroform were dried down together in the proper ratio under nitrogen. The residues were reconstituted as liposomes in saline or 500 mM KCl by intense sonication. This lipid composition produced sphingomyelin liposomes with no net charge.
Sphingomyelin devoid of its phosphorylcholine head group generates the molecule ceramide, a well known lipid second messenger which mediates a wide range of cellular responses to external stimuli, and also is used for the biosynthesis of sphingomyelin and glycosphingolipids. Because ceramide cannot form stable liposomes by itself, its effect on bladder hyperactivity was tested by including it at 1 mol % in an inert lipid, namely, 1,2-distearoyl-sn-glycero-3-phosphocholine (DSPC).
The methodology of this investigation is the same as described above in Example 1 with the exception that the preparation of liposomes was modified from Example 1. […]

[1] = included at 1 mol % in DSPC liposomes

Compound	effect on efficacy of DSPC liposomes in reducing bladder contraction frequency [1]	effect on efficacy of DSPC liposomes in reducing bladder contraction frequency (DSPC/cerebroside and cholesterol liposomes)
CCCCCCCCCCCCC/C=C/[C@@H](O)[C@@H](N)CO [sphingosine]	had a similar effect	–
ceramide	significantly increased the efficacy of DSPC	–
cerebroside	–	significantly increased the efficacy of DSPC
